Reference: US12214006B2, “Traditional chinese medicine ointment for preventing and treating mastitis in dairy cows, and preparation method thereof” (Hunan University of Science and Engineering, priority 2022, dated 2025)
No end group written: not given here.

Experiments:
[1] = tested on: Staphylococcus aureus; experiment: Filter paper bacteriostatic circle test, Staphylococcus aureus; format: cell-based; details: 20 μL of liquid medicine diluted by 10 times on 6.5 mm filter paper, 37° C., 24 hours
Experimental: (§1) In order to confirm the above conjecture, the application verifies the antibacterial effect of the traditional Chinese medicine concentrated solution prepared in each embodiment, and the method is as follows: • (1) taking Staphylococcus aureus and Escherichia coli grown on ordinary nutrient agar plates, dipping a small number of colonies with an inoculating loop, inoculating colonies into 5 mL of Mueller-Hinton (MH) broth, and performing shake culture at 37° C. for 6 hours at 200 r/min; taking bacterial liquid in logarithmic growth period and diluting the bacterial liquid with sterilized physiological saline until the bacterial content is 1-2×10^8 CFU/ml; diluting with sterilized physiological saline for 1000 times for later use; • (2) making a round filter paper with a diameter of 6.5 mm with a puncher, and dry-heat sterilizing it; first, evenly inoculating the bacterial liquid obtained in step (1) into a nutrient agar culture dish, then attaching the sterilized round filter paper to the surface of agar, transferring 20 μL of liquid medicine (diluted by 10 times) with a micropipette gun, dropping the liquid medicine in the center of the round filter paper, culturing it at 37° C. for 24 hours, and measuring the diameter of the bacteriostatic circle in which different liquid medicines are dropped.

[2] = tested on: Escherichia coli; experiment: Filter paper bacteriostatic circle test, Escherichia coli; format: cell-based; details: 20 μL of liquid medicine diluted by 10 times on 6.5 mm filter paper, 37° C., 24 hours
Experimental: as §1

[3] = tested on: dairy cows with mastitis; experiment: Therapeutic effect on dairy cows with mastitis (cure judged by sodium hydroxide curdled milk test); format: in vivo; details: ointments applied externally 2 g each time, twice a day for 5 days, control perfused with penicillin 100,000 IU, tested one day after stopping
Source text: Fifty dairy cows with mastitis detected by Shanghai Mastitis Test (SMT) are selected from a dairy farm in Hunan Province, of which 20 cows are externally coated with the traditional Chinese medicine ointment for preventing and treating mastitis in dairy cows prepared in embodiment 1 and 20 cows are externally applied with the traditional Chinese medicine ointment for preventing and treating mastitis in dairy cows prepared in comparative example 1, with the dosage of 2 g each time, twice a day for 5 days. The remaining 10 cows are perfused with penicillin 100,000 IU after all the milk is discharged from their breasts, as a control group.
Cure standard: one day after stopping the ointments, if curdled milk is negative by the sodium hydroxide test, the cows are judged to be cured.

| Substance | Diameter of bacteriostatic circle of Staphylococcus aureus (mm) [1] [mm] | Diameter of bacteriostatic circle of Escherichia coli (mm) [2] [mm] | Cure rate (%) [3] [%] | Cows (head) with curdled milk being negative by sodium hydroxide test ([3]; 20, 20 and 10 cows per group) [head] |
| --- | --- | --- | --- | --- |
| FFRKVLKLIRKIWR [1 from Hunan University of Science and Engineering, preparation per CN111529683A] | 15.3 | 14.7 | – | – |
| penicillin [Control group] | – | – | 80 | 8 |
